Assay results as given in ChEMBL document CHEMBL1131602 (J Med Chem, 1998).

What was measured:
Plasmodium falciparum [1] = test: In vitro inhibition of Plasmodium falciparum HB3 (S108N) culture; assay type: functional, organism-based
[2] = biological target: T1, Bifunctional dihydrofolate reductase-thymidylate synthase (Plasmodium falciparum K1, UniProt P13922); test: Binding affinity was evaluated as inhibition of recombinant wild type (WT) Plasmodium falciparum DHFR-TS.
Target sequence in this assay (P13922 whole entry): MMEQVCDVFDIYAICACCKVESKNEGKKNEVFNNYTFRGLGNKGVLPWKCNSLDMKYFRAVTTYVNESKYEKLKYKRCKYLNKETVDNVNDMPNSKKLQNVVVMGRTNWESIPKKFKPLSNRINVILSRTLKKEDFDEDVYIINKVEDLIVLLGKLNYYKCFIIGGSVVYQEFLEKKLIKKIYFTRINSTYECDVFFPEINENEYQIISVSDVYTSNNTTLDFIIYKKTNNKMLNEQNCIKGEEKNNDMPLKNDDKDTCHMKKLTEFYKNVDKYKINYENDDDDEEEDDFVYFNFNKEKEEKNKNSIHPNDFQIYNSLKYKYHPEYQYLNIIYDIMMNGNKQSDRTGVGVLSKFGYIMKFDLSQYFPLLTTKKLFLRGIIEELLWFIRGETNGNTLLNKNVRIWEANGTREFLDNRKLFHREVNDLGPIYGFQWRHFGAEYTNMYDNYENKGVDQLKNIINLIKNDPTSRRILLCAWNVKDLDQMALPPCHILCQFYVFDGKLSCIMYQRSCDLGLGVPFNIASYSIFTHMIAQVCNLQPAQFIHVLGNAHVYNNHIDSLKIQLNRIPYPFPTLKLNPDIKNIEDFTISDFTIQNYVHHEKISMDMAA

[3] = biological target: T1, Bifunctional dihydrofolate reductase-thymidylate synthase; test: Inhibitory activity against mutant Plasmodium falciparum DHFR-TS
Target sequence in this assay (P13922 whole entry, looked up): as the sequence (P13922 whole entry) above

[4] = biological target: T1, Bifunctional dihydrofolate reductase-thymidylate synthase; test: Inhibitory activity against recombinant wild type (WT) Plasmodium falciparum DHFR-TS
Target sequence in this assay (P13922 whole entry): as above

[5] = biological target: T1, Bifunctional dihydrofolate reductase-thymidylate synthase; test: Binding affinity was evaluated as inhibition of mutant (C59R + S108N) Plasmodium falciparum DHFR-TS.
Target sequence in this assay (P13922 whole entry): as above

[6] = Ratio of inhibitions against mutant and wild type (WT) Plasmodium falciparum DHFR-TS.
Plasmodium falciparum [7] = test: In vitro inhibition of Plasmodium falciparum K1 (S108N + C59R) culture; assay type: functional, organism-based

CCc1nc(N)nc(N)c1-c1cccc(OC)c1
IC50 (Plasmodium falciparum [1]): 0.2 nM | Ki [2]: 1.07 nM | IC50 [3]: 73 nM | Ki [3]: 14 nM | IC50 [4]: 9.3 nM | Ki [5]: 14 nM | Ratio [6]: 13.1 | IC50 (Plasmodium falciparum [7]): 3.7 nM

NC(=O)c1ccc[n+]([C@H]2O[C@@H](COP(=O)([O-])OP(=O)(O)OC[C@H]3O[C@@H](n4cnc5c(N)ncnc54)[C@H](OP(=O)(O)O)[C@@H]3O)[C@H](O)[C@@H]2O)c1 [NICOTINAMIDE ADENINE DINUCLEOTIDE PHOSPHATE]
Ki [2]: 4.7 nM | Ki [5]: 14.5 nM | Ratio [6]: 3.09

CC1(C)N=C(N)N=C(N)N1c1ccc(Cl)cc1 [CYCLOGUANIL]
Ki [2]: 2.6 nM | Ki [5]: 82.1 nM | Ratio [6]: 31.5

CCc1nc(N)nc(N)c1-c1cccc(Cl)c1
Ki [2]: 0.3 nM | IC50 [3]: 12.7 nM | IC50 [4]: 2.7 nM | Ki [5]: 2.4 nM | Ratio [6]: 8

CCc1nc(N)nc(N)c1-c1ccc(Cl)cc1 [PYRIMETHAMINE]
IC50 (Plasmodium falciparum [1]): 1.2 nM | IC50 (Plasmodium falciparum [7]): 10.2 nM
